From patent publication US10105357B2, “Indication of antibiotic drugs for preparation of cancer inhibition pharmaceutical composition” (LAUNX BIOMEDICAL CO., LTD., priority 2014, dated 2018)
Structures can show the parent of a compound that is named as a salt. Where two headings read alike, the source gives them in different places.

What was measured:
[1] = tested on: cancer cell lines; assay: Cell viability analysis (WST-1) on cancer cell lines; format: cell-based, human; details: drug 10 μM, 72 hours, WST-1; Table 3
[2] = tested on: SAS (Tongue squamous cell carcinoma); assay: Cell viability analysis, tongue cancer SAS; format: cell-based, human; details: Homo sapiens, 72 h; SAS; repeated experiment; read-out: The results of antibiotic drug inhibiting cancer cell lines (cell viability analysis), SAS
[3] = tested on: HL-60 (Acute Promyelocytic Leukemia); assay: Cell viability analysis, leukemia HL-60; format: cell-based, human; details: Homo sapiens, HL-60, 72 h, drug 10 μM, 72 hours, WST-1, OD450 nm; read-out: cell viability (survival rate), HL-60
[4] = tested on: U-2OS; assay: Cell viability analysis, osteosarcoma U-2OS; format: cell-based, human; details: Homo sapiens, 72 h; U2OS; repeated experiment; read-out: The results of antibiotic drug inhibiting cancer cell lines (cell viability analysis), U2OS
[5] = tested on: MKN-45 (Gastric Adenocarcinoma); assay: Cell viability analysis, gastric cancer MKN-45; format: cell-based, human; details: Homo sapiens, MKN-45, 72 h
[6] = tested on: AsPC-1; assay: Cell viability analysis, pancreatic cancer AsPC-1; format: cell-based, human; details: Homo sapiens, ASPC1, 72 h; AsPC-1; repeated experiment; read-out: The results of antibiotic drug inhibiting cancer cell lines (cell viability analysis), AsPC-1
[7] = tested on: Hep3B (hepatocellular carcinoma); assay: Cell viability analysis, hepatic cancer Hep3B; format: cell-based, human; details: Homo sapiens, 72 h; Hep3B; repeated experiment; read-out: The results of antibiotic drug inhibiting cancer cell lines (cell viability analysis), Hep3B
[8] = tested on: PC3 (p53−) (Prostate Adenocarcinoma); assay: Cell viability analysis, prostate cancer PC3; format: cell-based, human; details: Homo sapiens, 72 h
[9] = tested on: HCT116 (p53+) (Colorectal Carcinoma)
[10] = tested on: MCF7 (Mammary Gland, Adenocarcinoma); assay: Cell viability analysis, breast cancer MCF7; format: cell-based, human; details: Homo sapiens, MCF7, 72 h
[11] = tested on: BCC (basal cell carcinoma); assay: Cell viability analysis, skin cancer BCC; format: cell-based, human; details: Homo sapiens, 72 h; BCC; repeated experiment; read-out: The results of antibiotic drug inhibiting cancer cell lines (cell viability analysis), BCC
[12] = tested on: T24; assay: Cell viability analysis, bladder cancer T24; format: cell-based, human; details: Homo sapiens, T-24, 72 h; T24; repeated experiment; read-out: The results of antibiotic drug inhibiting cancer cell lines (cell viability analysis), T24
[13] = tested on: HepG2 (Hepatocellular Carcinoma); assay: Cell viability analysis, hepatic cancer HepG2; format: cell-based, human; details: Homo sapiens, HepG2, 72 h
[14] = tested on: BxPC-3; assay: Cell viability analysis, pancreatic cancer BxPC-3; format: cell-based, human; details: Homo sapiens, 72 h; BxPC-3; repeated experiment; read-out: The results of antibiotic drug inhibiting cancer cell lines (cell viability analysis), BxPC-3
[15] = tested on: LoVo (Colorectal Adenocarcinoma); assay: Cell viability analysis, colon cancer LoVo; format: cell-based, human; details: Homo sapiens, LoVo, 72 h
[16] = tested on: TOV-21G; assay: Cell viability analysis, ovarian cancer TOV-21G; format: cell-based, human; details: Homo sapiens, TOV21G, 72 h; TOV-21G; repeated experiment; read-out: The results of antibiotic drug inhibiting cancer cell lines (cell viability analysis), TOV-21G
[17] = tested on: AGS (Gastric Adenocarcinoma); assay: Cell viability analysis, gastric cancer AGS; format: cell-based, human; details: Homo sapiens, 72 h
[18] = tested on: MDA-MB-231 (Mammary Gland, Adenocarcinoma); assay: Cell viability analysis, breast cancer MDA-MB-231; format: cell-based, human; details: Homo sapiens, MDA-MB-231, 72 h; MDA-MB231; repeated experiment; read-out: The results of antibiotic drug inhibiting cancer cell lines (cell viability analysis), MDA-MB231
[19] = tested on: 786-O (Renal adenocarcinoma); assay: Cell viability analysis, renal cancer 786-O; format: cell-based, human; details: Homo sapiens, 786-0, 72 h; 786-O; repeated experiment; read-out: The results of antibiotic drug inhibiting cancer cell lines (cell viability analysis), 786-O
[20] = tested on: HeLa (Cervix Adenocarcinoma); assay: Cell viability analysis, cervical cancer HeLa; format: cell-based, human; details: Homo sapiens, HeLa, 72 h, HeLa
[21] = tested on: NIH: OVCAR-3; assay: Cell viability analysis, ovarian cancer NIH: OVCAR-3; format: cell-based, human; details: Homo sapiens, 72 h; NIH-OVCAR-3; repeated experiment; read-out: The results of antibiotic drug inhibiting cancer cell lines (cell viability analysis), NIH-OVCAR-3
[22] = tested on: HI650 (Lung Adenocarcinoma); assay: Cell viability analysis, lung cancer HI650; format: cell-based, human; details: Homo sapiens, NCI-H1650, 72 h
[23] = tested on: C-33A (Cervical carcinoma); assay: Cell viability analysis, cervical cancer C-33A; format: cell-based, human; details: Homo sapiens, 72 h; C-33A; repeated experiment; read-out: The results of antibiotic drug inhibiting cancer cell lines (cell viability analysis), C-33A
[24] = tested on: A549 (Lung Adenocarcinoma); assay: Cell viability analysis, lung cancer A549; format: cell-based, human; details: Homo sapiens, A549, 72 h
[25] = tested on: A375 (Amelanotic Melanoma); assay: Cell viability analysis, skin cancer A375; format: cell-based, human; details: Homo sapiens, A-375, 72 h
[26] = MKN-45, repeated experiment, read-out: The results of antibiotic drug inhibiting cancer cell lines (cell viability analysis), MKN-45
[27] = drug 10 μM, 72 hours, WST-1, OD450 nm, read-out: cell viability (survival rate), MKN-45
[28] = PC-3, repeated experiment, read-out: The results of antibiotic drug inhibiting cancer cell lines (cell viability analysis), PC-3
[29] = drug 10 μM, 72 hours, WST-1, OD450 nm, read-out: cell viability (survival rate), PC3
[30] = MCF-7, repeated experiment, read-out: The results of antibiotic drug inhibiting cancer cell lines (cell viability analysis), MCF-7
[31] = drug 10 μM, 72 hours, WST-1, OD450 nm, read-out: cell viability (survival rate), MCF7
[32] = HepG2, repeated experiment, read-out: The results of antibiotic drug inhibiting cancer cell lines (cell viability analysis), HepG2
[33] = drug 10 μM, 72 hours, WST-1, OD450 nm, read-out: cell viability (survival rate), HepG2
[34] = read-out: The results of antibiotic drug inhibiting cancer cell lines (cell viability analysis), LoVo, repeated experiment
[35] = read-out: cell viability (survival rate), LoVo, drug 10 μM, 72 hours, WST-1, OD450 nm
[36] = AGS, repeated experiment, read-out: The results of antibiotic drug inhibiting cancer cell lines (cell viability analysis), AGS
[37] = drug 10 μM, 72 hours, WST-1, OD450 nm, read-out: cell viability (survival rate), AGS
[38] = repeated experiment, read-out: The results of antibiotic drug inhibiting cancer cell lines (cell viability analysis), HeLa
[39] = drug 10 μM, 72 hours, WST-1, OD450 nm, read-out: cell viability (survival rate), HeLa
[40] = H1650, repeated experiment, read-out: The results of antibiotic drug inhibiting cancer cell lines (cell viability analysis), H1650
[41] = drug 10 μM, 72 hours, WST-1, OD450 nm, read-out: cell viability (survival rate), H1650
[42] = A549, repeated experiment, read-out: The results of antibiotic drug inhibiting cancer cell lines (cell viability analysis), A549
[43] = drug 10 μM, 72 hours, WST-1, OD450 nm, read-out: cell viability (survival rate), A549
[44] = A375, repeated experiment, read-out: The results of antibiotic drug inhibiting cancer cell lines (cell viability analysis), A375
[45] = drug 10 μM, 72 hours, WST-1, OD450 nm, read-out: cell viability (survival rate), A375

Row | Structure (SMILES) | viability at 10 µM [2] | viability at 10 µM [3] | viability at 10 µM [4] | viability at 10 µM [5, 26] | viability at 10 µM [5, 27] | viability at 10 µM [6] | viability at 10 µM [7] | viability at 10 µM [8, 28] | viability at 10 µM [8, 29] | viability at 10 µM [10, 30] | viability at 10 µM [10, 31] | viability at 10 µM [11] | viability at 10 µM [12] | viability at 10 µM [13, 32] | viability at 10 µM [13, 33] | viability at 10 µM [14] | viability at 10 µM [15, 34] | viability at 10 µM [15, 35] | viability at 10 µM [16] | viability at 10 µM [17, 36] | also measured
1 | CCCCCCCCCCCCCCCC[N+](C)(C)CCN(Cc1ccc(OC)cc1)c1ncccn1 [Thonzonium Bromide] | 20.4% | 35.2% | 31.7% | 31.2% | 47% | 27.6% | 51.3% | 29.3% | 46.2% | 41% | 47% | 23.4% | 18.5% | 47.7% | 45.1% | 24.4% | 50.9% | 39.4% | 17.4% | 14.4% | inhibition effect on different cancer cell lines [1]: significant inhibition effect; viability [9]: 18.8%; viability at 10 µM [17, 37]: 22.5%; viability at 10 µM [18]: 33.1%; viability at 10 µM [19]: 16.8%; viability at 10 µM [20, 38]: 20.3%; viability at 10 µM [20, 39]: 28%; viability at 10 µM [21]: 55.7%; viability at 10 µM [22, 40]: 37.6%; viability at 10 µM [22, 41]: 36.7%; viability at 10 µM [23]: 32.5%; viability at 10 µM [24, 42]: 15%; viability at 10 µM [24, 43]: 36.6%; viability at 10 µM [25, 44]: 12.4%; viability at 10 µM [25, 45]: 24.4%
2 | CC(C)/N=c1\cc2n(-c3ccc(Cl)cc3)c3ccccc3nc-2cc1Nc1ccc(Cl)cc1 [Clofazimine] | 75.2% | 85% | 80.6% | 108% | 53.1% | 76.6% | 91.6% | 106% | 53.2% | 74.2% | 51.2% | 72.9% | 74.1% | 90.4% | 82.2% | 72.2% | 83.4% | 68.3% | 65.1% | 78.8% | inhibition effect on different cancer cell lines [1]: significant inhibition effect; viability at 10 µM [17, 37]: 64.2%; viability at 10 µM [18]: 102%; viability at 10 µM [19]: 82.5%; viability at 10 µM [20, 38]: 94.3%; viability at 10 µM [20, 39]: 59.3%; viability at 10 µM [21]: 97.3%; viability at 10 µM [22, 40]: 92.2%; viability at 10 µM [22, 41]: 74.4%; viability at 10 µM [23]: 111%; viability at 10 µM [24, 42]: 87.1%; viability at 10 µM [24, 43]: 49.5%; viability at 10 µM [25, 44]: 81.2%; viability at 10 µM [25, 45]: 37.3%
3 | CN(C)CCC=C1c2ccccc2CCc2ccccc21 [Amitriptyline HCl] | 67.5% | 81.4% | 68.5% | 135% | 102% | 73.1% | 124% | 99.4% | 61.9% | 67.7% | 64.8% | 113% | 97.5% | 106% | 106% | 67.2% | 90.5% | 96.5% | 118% | 146% | inhibition effect on different cancer cell lines [1]: significant inhibition effect; viability at 10 µM [17, 37]: 61.5%; viability at 10 µM [18]: 106%; viability at 10 µM [19]: 85.5%; viability at 10 µM [20, 38]: 111%; viability at 10 µM [20, 39]: 90.6%; viability at 10 µM [21]: 104%; viability at 10 µM [22, 40]: 111%; viability at 10 µM [22, 41]: 64.4%; viability at 10 µM [23]: 100%; viability at 10 µM [24, 42]: 73.3%; viability at 10 µM [24, 43]: 69.3%; viability at 10 µM [25, 44]: 94.3%; viability at 10 µM [25, 45]: 84.8%
4 | COc1c(C)c2c(c(O)c1C/C=C(\C)CCC(=O)O)C(=O)OC2 [Mycophenolic (Mycophenolate), Mycophenolic] | 43.2% | 65.6% | 43.2% | 64.9% | 61.7% | 48.1% | 66.8% | 55.4% | 74.3% | 70.3% | 120% | 44.6% | 48.2% | 62.1% | 72.9% | 45.7% | 58.6% | 70.1% | 40.3% | 31.7% | viability [9]: 43.1%; viability at 10 µM [17, 37]: 57.8%; viability at 10 µM [18]: 56.9%; viability at 10 µM [19]: 24.7%; viability at 10 µM [20, 38]: 46.1%; viability at 10 µM [20, 39]: 90.7%; viability at 10 µM [21]: 59%; viability at 10 µM [22, 40]: 54.5%; viability at 10 µM [22, 41]: 83.1%; viability at 10 µM [23]: 51.8%; viability at 10 µM [24, 42]: 39%; viability at 10 µM [24, 43]: 80.6%; viability at 10 µM [25, 44]: 28.9%; viability at 10 µM [25, 45]: 57.4%
